{"source": "the NIST ThermoML archive (doi:10.1021/je900370q)", "note": "± gives the expanded uncertainty stated by the source.", "data": [{"conditions": "Crystal; DTA", "units": {"Normal melting temperature": "°C"}, "values": [{"compound": "O=C(/C=C/c1ccc(-c2cccc([N+](=O)[O-])c2)o1)c1cc2ccccc2oc1=O", "Normal melting temperature": "172.00 ± 1"}, {"compound": "COc1ccc(C(=O)/C=C/c2ccc(-c3cccc([N+](=O)[O-])c3)o2)cc1", "Normal melting temperature": "141.00 ± 1"}, {"compound": "O=C(/C=C/c1ccc(-c2cccc([N+](=O)[O-])c2)o1)c1ccc(Cl)cc1", "Normal melting temperature": "170.00 ± 1"}, {"compound": "O=C(/C=C/c1ccc(-c2cccc([N+](=O)[O-])c2)o1)c1ccccc1", "note": "[(E)-3-(5-(3-nitrophenyl)furan-2-yl)-1-phenylprop-2-en-1-one]", "Normal melting temperature": "142.00 ± 1"}, {"compound": "Nc1ccc(C(=O)/C=C/c2ccc(-c3cccc([N+](=O)[O-])c3)o2)cc1", "Normal melting temperature": "171.00 ± 1"}, {"compound": "O=C(/C=C/c1ccc(-c2cccc([N+](=O)[O-])c2)o1)c1ccco1", "Normal melting temperature": "178.00 ± 1"}, {"compound": "O=C(/C=C/c1ccc(-c2cccc([N+](=O)[O-])c2)o1)c1cccc([N+](=O)[O-])c1", "Normal melting temperature": "180.00 ± 1"}, {"compound": "O=C(/C=C/c1ccc(-c2cccc([N+](=O)[O-])c2)o1)c1ccc(O)cc1", "Normal melting temperature": "152.00 ± 1"}, {"compound": "O=C(/C=C/c1ccc(-c2cccc([N+](=O)[O-])c2)o1)c1ccc([N+](=O)[O-])cc1", "Normal melting temperature": "218.00 ± 1"}, {"compound": "O=C(/C=C/c1ccc(-c2cccc([N+](=O)[O-])c2)o1)c1ccc(Br)cc1", "Normal melting temperature": "160.00 ± 1"}]}]}
